{"source": "patent US20130115171A1", "about": "“NAV1.7-RELATED ASSAYS” (priority 2011, published 2013)", "key": {"male rats": {"test_system": "male rats", "details": "rat, in vivo", "procedure": "Veratridine was injected intra-plantar at 30 micrograms.\nKnown preclinical and clinical analgesics were tested to see if they could prevent veratridine-induced behaviors."}, "male CD1 mice": {"test_system": "male CD1 mice", "assay_type": "in vivo, mouse"}, "NaV1.7 [1]": {"test_system": "NaV1.7", "assay_type": "in vivo, mouse", "details": "for Flinching response to paw injection: one microgram", "text": "Activation of one, some, or all of the nine sodium channel isoforms might produce painful behaviors. […] All behavioral experiments were done with the observer blinded as to the mouse genotype or treatment."}, "NaV1.3": {"molecular_target": "NaV1.3 (Rattus norvegicus, UniProt P08104)", "details": "read-out: TTX IC50; cited from earlier work"}, "NaV1.4": {"molecular_target": "NaV1.4 (Rattus norvegicus, UniProt P15390)", "details": "read-out: TTX IC50; cited from earlier work"}, "NaV1.6": {"molecular_target": "NaV1.6 (Rattus norvegicus, UniProt O88420)", "sequence (O88420 whole entry, looked up)": "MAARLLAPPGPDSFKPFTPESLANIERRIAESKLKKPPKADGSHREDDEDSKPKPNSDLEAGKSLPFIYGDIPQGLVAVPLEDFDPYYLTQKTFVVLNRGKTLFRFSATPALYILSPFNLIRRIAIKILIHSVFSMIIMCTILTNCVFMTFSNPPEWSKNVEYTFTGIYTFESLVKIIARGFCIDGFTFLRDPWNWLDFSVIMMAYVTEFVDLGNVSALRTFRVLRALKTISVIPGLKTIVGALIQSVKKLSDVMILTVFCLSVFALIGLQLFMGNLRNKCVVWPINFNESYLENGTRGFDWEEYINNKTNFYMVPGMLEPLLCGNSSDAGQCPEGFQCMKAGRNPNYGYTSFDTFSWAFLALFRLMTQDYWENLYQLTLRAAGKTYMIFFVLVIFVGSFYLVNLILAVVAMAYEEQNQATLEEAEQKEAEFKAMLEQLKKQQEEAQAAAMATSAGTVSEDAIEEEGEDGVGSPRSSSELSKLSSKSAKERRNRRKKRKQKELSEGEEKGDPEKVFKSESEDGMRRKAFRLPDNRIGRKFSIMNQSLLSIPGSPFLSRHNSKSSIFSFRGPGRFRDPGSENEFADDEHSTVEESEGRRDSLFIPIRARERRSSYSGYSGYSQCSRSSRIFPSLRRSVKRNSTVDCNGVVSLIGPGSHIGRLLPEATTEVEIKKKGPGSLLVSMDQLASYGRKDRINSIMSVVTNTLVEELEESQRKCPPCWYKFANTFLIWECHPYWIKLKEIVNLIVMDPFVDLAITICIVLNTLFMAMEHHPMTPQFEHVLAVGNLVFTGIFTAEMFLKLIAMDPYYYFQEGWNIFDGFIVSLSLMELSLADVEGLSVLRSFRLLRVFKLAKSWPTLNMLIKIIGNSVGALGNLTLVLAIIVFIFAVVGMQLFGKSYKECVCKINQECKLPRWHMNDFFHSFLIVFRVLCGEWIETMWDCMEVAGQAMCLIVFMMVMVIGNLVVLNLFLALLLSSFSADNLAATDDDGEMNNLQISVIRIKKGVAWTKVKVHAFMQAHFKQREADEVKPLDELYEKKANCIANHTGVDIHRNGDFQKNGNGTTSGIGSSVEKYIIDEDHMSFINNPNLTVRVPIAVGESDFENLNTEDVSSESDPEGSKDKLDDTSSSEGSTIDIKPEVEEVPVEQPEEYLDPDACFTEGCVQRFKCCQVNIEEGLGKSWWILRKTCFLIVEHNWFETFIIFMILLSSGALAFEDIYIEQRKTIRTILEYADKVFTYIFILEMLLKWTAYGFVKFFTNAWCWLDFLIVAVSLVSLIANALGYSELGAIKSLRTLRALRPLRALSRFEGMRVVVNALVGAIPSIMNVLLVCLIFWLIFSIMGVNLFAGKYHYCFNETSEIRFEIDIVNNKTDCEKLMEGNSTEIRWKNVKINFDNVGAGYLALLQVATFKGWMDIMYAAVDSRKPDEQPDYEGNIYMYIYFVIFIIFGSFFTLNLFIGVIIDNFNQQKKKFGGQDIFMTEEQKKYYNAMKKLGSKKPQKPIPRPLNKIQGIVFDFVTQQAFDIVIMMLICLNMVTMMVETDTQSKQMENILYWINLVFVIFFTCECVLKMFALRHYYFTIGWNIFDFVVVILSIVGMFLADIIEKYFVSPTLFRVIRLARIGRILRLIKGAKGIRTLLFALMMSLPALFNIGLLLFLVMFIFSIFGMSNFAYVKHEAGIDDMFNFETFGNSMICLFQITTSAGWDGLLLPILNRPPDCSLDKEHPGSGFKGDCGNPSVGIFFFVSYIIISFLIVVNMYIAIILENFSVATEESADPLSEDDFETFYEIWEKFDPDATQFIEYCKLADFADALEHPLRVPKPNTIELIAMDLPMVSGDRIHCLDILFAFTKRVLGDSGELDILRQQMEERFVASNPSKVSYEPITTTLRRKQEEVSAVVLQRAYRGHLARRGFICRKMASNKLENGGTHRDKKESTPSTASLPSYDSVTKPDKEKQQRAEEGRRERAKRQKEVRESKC", "details": "read-out: TTX IC50; cited from earlier work"}, "NaV1.7 [2]": {"molecular_target": "NaV1.7 (Rattus norvegicus, UniProt O08562)", "details": "read-out: TTX IC50; cited from earlier work"}, "NaV1.8": {"molecular_target": "NaV1.8 (Rattus norvegicus, UniProt Q62968)", "details": "read-out: TTX IC50; cited from earlier work"}, "hNaV1.7": {"molecular_target": "hNaV1.7 (Homo sapiens, UniProt Q15858)", "sequence (Q15858 whole entry)": "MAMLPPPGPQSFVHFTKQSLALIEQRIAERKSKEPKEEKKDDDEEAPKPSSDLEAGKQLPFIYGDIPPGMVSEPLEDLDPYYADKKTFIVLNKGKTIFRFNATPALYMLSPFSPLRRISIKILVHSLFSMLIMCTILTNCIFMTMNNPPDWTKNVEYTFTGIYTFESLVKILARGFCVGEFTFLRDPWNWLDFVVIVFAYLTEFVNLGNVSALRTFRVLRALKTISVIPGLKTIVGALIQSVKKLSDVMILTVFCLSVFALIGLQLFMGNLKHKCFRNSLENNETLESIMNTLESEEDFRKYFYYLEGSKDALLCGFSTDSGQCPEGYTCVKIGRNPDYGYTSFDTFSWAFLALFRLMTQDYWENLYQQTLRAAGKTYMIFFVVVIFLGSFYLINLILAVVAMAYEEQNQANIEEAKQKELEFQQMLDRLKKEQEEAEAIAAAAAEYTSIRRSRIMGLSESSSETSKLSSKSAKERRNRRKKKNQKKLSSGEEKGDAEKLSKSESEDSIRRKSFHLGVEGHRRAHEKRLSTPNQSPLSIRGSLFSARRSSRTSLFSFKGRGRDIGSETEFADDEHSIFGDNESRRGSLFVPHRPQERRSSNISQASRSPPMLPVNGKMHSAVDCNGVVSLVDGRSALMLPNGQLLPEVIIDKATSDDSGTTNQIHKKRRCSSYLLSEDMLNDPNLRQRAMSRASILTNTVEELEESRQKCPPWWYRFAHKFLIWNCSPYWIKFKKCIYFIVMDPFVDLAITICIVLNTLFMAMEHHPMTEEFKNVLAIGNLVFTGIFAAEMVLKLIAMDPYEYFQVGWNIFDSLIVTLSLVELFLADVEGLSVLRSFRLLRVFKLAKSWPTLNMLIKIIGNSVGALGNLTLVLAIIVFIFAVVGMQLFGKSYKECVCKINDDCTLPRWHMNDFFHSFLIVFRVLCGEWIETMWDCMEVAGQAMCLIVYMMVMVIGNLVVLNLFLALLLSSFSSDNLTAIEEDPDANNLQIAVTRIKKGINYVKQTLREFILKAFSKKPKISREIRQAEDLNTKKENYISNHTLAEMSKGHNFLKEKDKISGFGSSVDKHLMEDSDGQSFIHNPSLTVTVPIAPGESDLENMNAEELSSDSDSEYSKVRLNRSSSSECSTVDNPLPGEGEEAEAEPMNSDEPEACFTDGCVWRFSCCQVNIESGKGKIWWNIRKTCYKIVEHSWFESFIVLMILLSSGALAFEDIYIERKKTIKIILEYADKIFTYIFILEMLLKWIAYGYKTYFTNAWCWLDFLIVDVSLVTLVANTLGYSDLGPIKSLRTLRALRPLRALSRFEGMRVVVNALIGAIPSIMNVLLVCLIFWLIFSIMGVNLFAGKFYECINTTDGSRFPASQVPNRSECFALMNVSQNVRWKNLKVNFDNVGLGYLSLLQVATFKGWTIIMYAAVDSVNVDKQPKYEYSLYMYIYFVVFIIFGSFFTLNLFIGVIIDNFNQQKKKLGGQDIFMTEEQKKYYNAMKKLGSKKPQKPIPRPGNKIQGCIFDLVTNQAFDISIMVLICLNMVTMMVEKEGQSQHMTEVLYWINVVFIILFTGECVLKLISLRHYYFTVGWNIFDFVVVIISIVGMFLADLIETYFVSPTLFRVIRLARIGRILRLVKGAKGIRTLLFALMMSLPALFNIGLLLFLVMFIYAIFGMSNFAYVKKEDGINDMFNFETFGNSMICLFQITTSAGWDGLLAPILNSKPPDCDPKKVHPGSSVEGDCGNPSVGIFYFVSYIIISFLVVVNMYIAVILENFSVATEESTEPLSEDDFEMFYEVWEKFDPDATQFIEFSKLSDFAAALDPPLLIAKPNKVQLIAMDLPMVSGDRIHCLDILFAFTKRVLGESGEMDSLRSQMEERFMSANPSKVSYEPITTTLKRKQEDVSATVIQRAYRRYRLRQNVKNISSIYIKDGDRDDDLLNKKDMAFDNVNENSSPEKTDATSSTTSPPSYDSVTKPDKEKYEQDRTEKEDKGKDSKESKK"}}, "note": "“Also recorded” adds a separate entry of the source. Like-named read-outs stand apart in the source and are kept apart here.", "data": [{"compound": "CN1C(=O)CN=C(c2ccccc2)c2cc(Cl)ccc21", "note": "[Diazepam]", "values": [{"measurement": "Inhibition of veratridine-induced pain-like behaviors (licking and paw-flinching)", "setting": "male rats", "value": "ineffective"}, {"measurement": "Significant Reversal of Edema", "setting": "male rats", "value": "No"}, {"measurement": "Significant Reversal of Flinching", "setting": "male rats", "value": "No"}, {"measurement": "Significant Reversal of Lifting", "setting": "male rats", "value": "No"}]}, {"compound": "CNCC[C@H](Oc1cccc2ccccc12)c1cccs1", "note": "[Duloxetine, duloxetine]", "values": [{"measurement": "Inhibition of veratridine-induced pain-like behaviors (licking and paw-flinching)", "setting": "male rats", "value": "inhibited somewhat"}, {"measurement": "Significant Reversal of Edema", "setting": "male rats", "value": "No"}]}, {"compound": "NCC1(CC(=O)O)CCCCC1", "note": "[Gabapentin, gabapentin]", "values": [{"measurement": "Inhibition of veratridine-induced pain-like behaviors (licking and paw-flinching)", "setting": "male rats", "value": "not all"}, {"measurement": "Significant Reversal of Edema", "setting": "male rats", "value": "No"}]}, {"compound": "Cc1cccc(C)c1OCC(C)N", "note": "(stereo not shown) [Mexiletine, mexiletine]", "values": [{"measurement": "Inhibition of veratridine-induced pain-like behaviors (licking and paw-flinching)", "setting": "male rats", "value": "inhibited fully"}, {"measurement": "Significant Reversal of Edema", "setting": "male rats", "value": "Yes"}, {"measurement": "Significant Reversal of Flinching", "setting": "male rats", "value": "Yes"}, {"measurement": "Significant Reversal of Lifting", "setting": "male rats", "value": "Yes"}, {"measurement": "Lifting and flinching behaviors", "setting": "male rats; po", "value": "prevented in a dose-dependent manner"}, {"measurement": "Block of effects of veratridine (total lifting time)", "setting": "male CD1 mice; mouse, in vivo, ip, 30 mg/kg", "value": "blocked"}, {"measurement": "Prevention of lifting/licking response to deltamethrin", "setting": "male CD1 mice; mouse, in vivo, ip, 30 mg/kg", "value": "prevented the lifting/licking response"}, {"measurement": "Prevention of lifting/licking response to grayanotoxin III", "setting": "male CD1 mice; mouse, in vivo, ip, 30 mg/kg", "value": "prevented the lifting/licking response"}, {"measurement": "Prevention of veratridine-induced flinching / lifting/licking", "setting": "NaV1.7 [1]; mouse, in vivo", "value": "prevents the flinching behavior; also recorded: prevented flinching"}]}, {"compound": "CN1CC[C@]23c4c5ccc(O)c4O[C@H]2[C@@H](O)C=C[C@H]3[C@H]1C5", "note": "[Morphine, morphine]", "values": [{"measurement": "Inhibition of veratridine-induced pain-like behaviors (licking and paw-flinching)", "setting": "male rats", "value": "inhibited somewhat"}, {"measurement": "Significant Reversal of Edema", "setting": "male rats", "value": "No"}]}, {"compound": "COc1ccc2cc([C@H](C)C(=O)O)ccc2c1", "note": "[Naproxen, naproxen]", "values": [{"measurement": "Significant Reversal of Edema", "setting": "male rats", "value": "No"}]}, {"compound": "NC1=N[C@H](O)[C@H]2[C@H]3O[C@]4(O)O[C@@H]([C@@H](O)[C@@]2(N1)[C@@H]4O)[C@]3(O)CO", "note": "[TTX, tetrodotoxin]", "values": [{"measurement": "IC50", "setting": "NaV1.3", "value": "2 to 15", "unit": "nM"}, {"measurement": "IC50", "setting": "NaV1.4", "value": 5, "unit": "nM"}, {"measurement": "IC50", "setting": "NaV1.6", "value": 1, "unit": "nM"}, {"measurement": "IC50", "setting": "NaV1.7 [2]", "value": 4, "unit": "nM"}, {"measurement": "IC50", "setting": "NaV1.8", "value": "> 50000", "unit": "nM"}]}, {"compound": "CC1(C)[C@H](C(=O)O[C@H](C#N)c2cccc(Oc3ccccc3)c2)[C@@H]1C=C(Br)Br", "note": "[deltamethrin]", "values": [{"measurement": "Lifting/licking response (total flinches) after injection", "setting": "male CD1 mice; male CD1 mice, 10 microgram suspension dose of deltamethrin", "value": "produced a lifting/licking response"}]}, {"compound": "CC1(O)CC23CC(O)C4(O)C(CC(O)C4(C)C)C(C)(O)C2CCC1C3O", "note": "(stereo not shown) [grayanotoxin III]", "values": [{"measurement": "Lifting/licking response (total flinches) after injection", "setting": "male CD1 mice; mouse, in vivo", "value": "produced a lifting/licking response"}, {"measurement": "Activation of hNaV1.7", "setting": "hNaV1.7", "value": "activated hNaV1.7; also recorded: activated NaV1.7"}, {"measurement": "Voltage at which sodium currents start to activate", "setting": "hNaV1.7", "value": "−95", "unit": "mV"}]}, {"compound": "COc1ccc(C(=O)O[C@H]2CC[C@@]3(C)[C@@H]4CC[C@@H]5C3(C[C@@]3(O)[C@@H]6CN7C[C@@H](C)CC[C@H]7[C@@](C)(O)[C@@]6(O)[C@@H](O)C[C@@]53O)O[C@]24O)cc1OC", "note": "[veratridine, 4α,9-Epoxy-3β-veratroyloxy-5β-cevan-4β,12,14,16β,17,20-hexaol]", "values": [{"measurement": "Pain-related behaviors (paw lifting/licking, flinching) after injection into the paw", "setting": "male rats", "value": "caused two separate pain-related behaviors"}, {"measurement": "Side effects at higher doses", "setting": "male rats", "value": "variable neurological side effects"}, {"measurement": "Lifting behavior after i.pl. injection", "setting": "male CD1 mice; mouse, in vivo", "value": "caused equivalent lifting behavior"}, {"measurement": "Flinching response to paw injection", "setting": "NaV1.7 [1]; global NaV1.7 knockout mice", "value": "no flinching or licking behavior; also recorded: no effect; also recorded: no response"}, {"measurement": "Flinching response to paw injection", "setting": "NaV1.7 [1]; wild type heterozygote mice", "value": "robust flinching behavior; also recorded: robust flinching response"}]}]}
